The values below come from patent publication US20020044973A1, “MICROPARTICLES AND THEIR USE IN CANCER TREATMENT” (priority 1997, published 2002).

One assay concerns MCF7/Dox cell line. The experiment in a line: Cytotoxicity in doxorubicin-resistant P-glycoprotein expressing daughter cell line (cell counting, Coulter Counter). In kind it is cell-based. The note with it: Homo sapiens, 24 hours incubation, further 72 hours before counting, microspheres expressed as μg doxorubicin per ml.
The test system of another assay is C170HM2. The experiment in a line: Example 5: liver tumour weight in tumour-bearing mice, loaded HSAMs vs free doxorubicin. In kind it is in vivo. The settings on record: 0.24 mg/kg loaded HSAMs or 0.25 mg/kg free doxorubicin; dosing at day 27, termination at day 41; 12 mice per group. On the procedure: 0.24 mg/kg doxorubicin-loaded HSAMs (drug loading approx. 1% w/w) were administered to a group of tumour-bearing mice (C170HM2). A further group received HSAMs, at a protein concentration of 100 mg/ml, as a control. A third group received 0.25 mg/kg free doxorubicin. There were 12 mice per group. Dosing was at day 27, termination at day 41.
For the control, the mean liver tumour weight was c. 1.3 g. Following administration of free doxorubicin, the mean weight was c. 0.3 g.

≈ marks a conversion by molar mass, not a printed value.

Method for MCF7/Dox cell line: More specifically, the experiment compared the cytotoxicity of a novel preparation of doxorubicin covalently-linked to a human serum albumin microsphere carrier between 2 and 3 μm in diameter on a doxorubicin-sensitive human breast cancer cell line and its doxorubicin-resistant P-glycoprotein expressing daughter cell line. […] The human MCF7 cell line and its doxorubicin-resistant daughter cell line, MCF7/Dox were used.
The medium was then changed, cells were incubated for a further 72 hours before harvesting and counting with a Coulter Counter.

The molecule `COc1cccc2c1C(=O)c1c(O)c3c(c(O)c1C2=O)C[C@@](O)(C(=O)CO)C[C@@H]3O[C@H]1C[C@H](N)[C@H](O)[C@H](C)O1` [doxorubicin] had an IC50 with MCF7/Dox cell line of 0.387 µg/mL (≈ 0.712 µM). The “mean liver tumour weight” value in the assay on C170HM2 is listed as around 0.3 g.
